In BindingDB's records for doi:10.1038/nchembio.481 (CGI Pharmaceuticals, 2011):

These compounds were tested against Tyrosine-protein kinase BTK (Homo sapiens, UniProt Q06187) (assay: Btk Kinase Assay). Details: pH 7.5; 23 °C.
Sequence of Tyrosine-protein kinase BTK (Q06187 whole entry): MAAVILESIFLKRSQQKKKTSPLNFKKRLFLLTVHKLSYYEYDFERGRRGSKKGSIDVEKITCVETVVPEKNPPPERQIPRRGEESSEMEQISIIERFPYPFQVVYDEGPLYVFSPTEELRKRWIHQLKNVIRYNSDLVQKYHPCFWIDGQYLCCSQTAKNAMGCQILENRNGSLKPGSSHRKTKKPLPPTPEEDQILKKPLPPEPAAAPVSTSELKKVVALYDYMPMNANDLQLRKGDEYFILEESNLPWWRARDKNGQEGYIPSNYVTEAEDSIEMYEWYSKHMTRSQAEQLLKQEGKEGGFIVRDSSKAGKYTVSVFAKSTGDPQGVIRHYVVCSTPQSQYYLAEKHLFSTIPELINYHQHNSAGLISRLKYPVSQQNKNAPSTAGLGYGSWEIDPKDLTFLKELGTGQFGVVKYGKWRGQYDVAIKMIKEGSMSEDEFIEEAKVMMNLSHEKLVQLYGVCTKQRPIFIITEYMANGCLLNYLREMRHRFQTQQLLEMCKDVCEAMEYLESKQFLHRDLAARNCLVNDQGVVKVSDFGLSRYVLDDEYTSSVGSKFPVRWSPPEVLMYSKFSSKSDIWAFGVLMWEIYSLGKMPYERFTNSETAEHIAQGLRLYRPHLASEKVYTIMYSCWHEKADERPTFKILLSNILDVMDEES
From the text: Biochemical assay using Lanthascreen (human, full-lenght, C-terminal v5-His6 expressed in Sf9 cell) assay from Invitrogen.
In the case of `Cc1c(NC(=O)c2cccc(C(C)(C)C)c2)cccc1-c1cn(C)c(=O)c(Nc2ccc(C(=O)N3CCOCC3)cc2)n1` [3-(tert-Butyl)-N-(2-methyl-3-(4-methyl-6-((4-(morpholine-4-carbonyl)phenyl)amino)-5-oxo-4,5-dihydropyrazin-2-yl)phenyl)benzamide, 6], the IC50 is reported as 3.14 µM.
Work on `Cc1c(NCc2ccc(C(C)(C)C)cc2)cccc1-c1cn(C)c(=O)c(Nc2ccc(C(=O)N3CCOCC3)cc2)n1` [5-(3-((4-(tert-Butyl)benzyl)amino)-2-methylphenyl)-1-methyl-3-((4-(morpholine-4-carbonyl)phenyl)amino)pyrazin-2(1H)-one, 5] yielded an IC50 of 9.06 µM.
`Cc1c(N)cccc1-c1cn(C)c(=O)c(Nc2ccc(C(=O)N3CCOCC3)cc2)n1` [5-(3-Amino-2-methylphenyl)-1-methyl-3-((4-(morpholine-4-carbonyl)phenyl)amino)pyrazin-2(1H)-one, 3] showed an IC50 of 5.44 µM.
For `Cc1c(NC(=O)c2ccc(C(C)(C)C)nc2)cccc1-c1cn(C)c(=O)c(Nc2ccc(C(=O)N3CCOCC3)cc2)n1` [6-(tert-Butyl)-N-(2-methyl-3-(4-methyl-6-((4-(morpholine-4-carbonyl)phenyl)amino)-5-oxo-4,5-dihydropyrazin-2-yl)phenyl)nicotinamide, 7], the IC50 was 0.65 µM.
Compound `CC(=O)Nc1cccc(-c2cn(C)c(=O)c(Nc3ccc(C(=O)N4CCOCC4)cc3)n2)c1C` [CID46942382] has an IC50 of 2.69 µM.
